Test results published in patent US11274332B2, “Methods of administering 3,4-diaminopyridine” (SERB SA, priority 2011, dated 2022).

Biological target: T1, hKv1.7 (Homo sapiens, UniProt Q96RP8)
T1 construct: expressed in transfected cells; host or cells: CHO cells (transient transfection)
Assay: Whole cell patch clamp inhibition of hKv1.7 current in transiently transfected CHO cells (Example 5)
Type: cell-based
Settings: hKv1.7, up to 3000 μM
Description: Chemicals used in solution preparation were purchased from Sigma-Aldrich (St. Louis, Mo.), unless otherwise noted, and were of ACS reagent grade purity or higher. Stock solutions of each test article (100.104 mM and 1.00 mM 3,4-DAP phosphate and 100.023 mM and 336.335 mM N-(4-aminopyridin-3-yl) acetamide HCl) were prepared in sterile water, stored refrigerated and used within one day. […] All test article solutions contained 3% sterile water. The test articles were prepared in sufficient volume to run the assay (typically 50 mL).
CHO cells, transiently transfected with hKv1.7, were cryopreserved in 90% FBS and 10% DMSO. Frozen vials of cells were thawed rapidly in a 37° C. water bath. Cells were transferred to a 15 mL conical tube, 10 mL of growth media (Ham's/F12-PS/10% FBS) was added, the suspension was gently mixed and the tube was centrifuged at approximately 250×g for 5 min. The medium was removed, the cell pellet was resuspended in 20 mL of medium, and cells were triturated to disperse cell clumps. For electrophysiology use, 2 mL of the cell suspension was plated in each 35 mm cell culture dish. Recording began 2-3 hours after plating once the cells settled out of the media and adhered to the bottom of the culture dish. […]
Cells were transferred to the recording chamber and superfused with vehicle control solution. […] Onset and steady state inhibition of hKv1.7 current due to the test article was measured using a pulse pattern with fixed amplitudes (depolarization: +10 mV amplitude, 300 ms duration) repeated at 10-second intervals from a holding potential of −80 mV. Current amplitude was measured at the end of the step to +10 mV. Current was monitored until a new steady state was achieved. […] The IC50 for sustained current was calculated for 3,4-DAP phosphate salt.
For 3,4-DAP phosphate salt, the concentration-response relationship was evaluated at seven concentrations (1, 10, 30, 100, 300, 1000 and 3000 μM) and for N-(4-aminopyridin-3-yl) acetamide HCl salt, the concentration-response relationship was evaluated at three concentrations (100, 1000 and 3000 μM).

T1 sequence (Q96RP8 whole entry): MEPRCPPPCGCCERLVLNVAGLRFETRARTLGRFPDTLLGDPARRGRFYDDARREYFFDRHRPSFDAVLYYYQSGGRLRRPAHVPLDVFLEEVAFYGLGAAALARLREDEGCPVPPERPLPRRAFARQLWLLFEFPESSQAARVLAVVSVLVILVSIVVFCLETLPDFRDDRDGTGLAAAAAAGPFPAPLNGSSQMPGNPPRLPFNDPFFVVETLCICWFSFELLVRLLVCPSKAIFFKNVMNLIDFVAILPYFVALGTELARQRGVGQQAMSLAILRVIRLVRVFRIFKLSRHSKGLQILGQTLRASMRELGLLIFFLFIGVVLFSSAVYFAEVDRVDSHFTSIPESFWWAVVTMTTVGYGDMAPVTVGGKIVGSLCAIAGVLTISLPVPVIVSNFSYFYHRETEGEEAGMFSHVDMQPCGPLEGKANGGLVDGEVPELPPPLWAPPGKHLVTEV

activity on K+ channel: inactive
activity on K+ channel (listed as N-acetyl metabolite): not active
Compound: CC(=O)Nc1cnccc1N [3-N-acetyl amifampridine, N-(4-aminopyridin-3-yl)acetamide]
